Source: patent publication US20240390298A1, “CYCLOHEXYL BETA-HYDROXY ALKYL AMINES AND MEDICAL USES THEREOF” (ATROGI AB, priority 2021, published 2024)

Legend:
L6-myotubes [1] = assay: Glucose uptake in differentiated L6-myotubes (3H-2-deoxyglucose), compared to isoproterenol; format: cell-based; details: agonist 1×10^−5 M, 50 nM 3H-2-deoxyglucose; for Emax at 10 µM: read-out: Biological example 1: glucose uptake, activity compared to that of isoproterenol
Procedure: (§1) L6-myoblasts were grown in Dulbecco's Modified Eagle's Medium (DMEM) containing 1 g/L glucose supplemented with 10% fetal bovine serum, 2 mM L-Glutamine, 50 U/mL penicillin, 50 μg/mL streptomycin and 10 mM HEPES. Cells were plated at 1×10^5 cells per mL in 24-well plates. After reaching 90% confluence the cells were grown in medium containing 2% FBS for 7 days where upon cells differentiated into myotubes.
Differentiated L6-myotubes were serum-starved overnight in medium containing 0.5% fatty-acid free BSA and stimulated with an agonist, with a final concentration of 1×10^−5 M. After 1 h 40 min the cells were washed with warm glucose free medium or PBS twice and another portion of agonist was added to the glucose free medium. After 20 min the cells were exposed to 50 nM ^3H-2-deoxyglucose for 10 min before washed with ice cold glucose free medium or PBS three times and lysed with 0.2 M NaOH, 400 μL/well, for 1 h at 60° C. The cell lysate was mixed with 4 mL scintillation buffer (Emulsifier Safe, Perkin Elmer) and the radioactivity was detected in a β-counter (Tri-Carb 4810TR, Perkin Elmer). The activity for each compound is compared to that of isoproterenol.

L6-myotubes [2] = assay: Measurement of intracellular cAMP levels in differentiated L6 cells (alpha screen cAMP kit), compared to isoproterenol; format: cell-based; details: agonist 1×10^−5 M, 15 min; for Emax at 10 µM: Rattus norvegicus, L6, 0.25 h, read-out: Biological example 2: intracellular cAMP levels, activity compared to that of isoproterenol
Procedure: as §1
Differentiated cells were serum-starved overnight and stimulated with an agonist, final concentration 1×10^−5 M, for 15 min in stimulation buffer (HBSS supplemented with 1% BSA, 5 mM HEPES and 1 mM IBMX, pH 7.4). The medium was aspirated and 100 μL of 95% EtOH was added to each well of the 24-well plate and cells were kept at −20° C. overnight. The EtOH was allowed to evaporate and 500 μL of lysis buffer (1% BSA, 5 mM HEPES and 0.3% Tween-20, pH 7.4) was added to each well. The plate was kept at −80° C. for 30 min and then at −20° C. until the day of detection when the samples were thawed. Intracellular cAMP levels were detected using an alpha screen cAMP kit (6760635D from Perkin Elmer). The activity for each compound is compared to that of isoproterenol.

CNS(=O)(=O)[C@H]1CC[C@@H](CC(C)(C)NC[C@H](O)c2cccc(F)c2)CC1.Cl [Example 192, (1S,4s)-4-(2-(((R)-2-(3-Fluorophenyl)-2-hydroxyethyl)amino)-2-methyl-propyl)-N-methylcyclohexane-1-sulfonamide hydrochloride]
Biological example 1: glucose uptake, activity compared to that of isoproterenol (L6-myotubes [1]): + + +
Emax at 10 µM (L6-myotubes [2]): < 25%

CC(C)(NC[C@H](O)c1cncc(F)c1)[C@H]1CC[C@@H](OCc2ccccc2)CC1 [Example 35, (R)-2-((2-((1s,4S)-4-(Benzyloxy)cyclohexyl)propan-2-yl)amino)-1-(5-fluoropyridin-3-yl)ethan-1-ol]
Biological example 1: glucose uptake, activity compared to that of isoproterenol (L6-myotubes [1]): + +
Emax at 10 µM (L6-myotubes [2]): < 25%

CO[C@H]1CC[C@@H](C(C)(C)NC[C@H](O)c2cccc(F)c2)CC1 [Example 5, (R)-1-(3-Fluorophenyl)-2-((2-((1s,4S)-4-methoxycyclohexyl)propan-2-yl)-amino)ethan-1-ol]
Emax at 10 µM (L6-myotubes [1]): < 25%
Emax at 10 µM (L6-myotubes [2]): < 25%

CN(C)C(=O)N[C@H]1CC[C@H](CC(C)(C)NC[C@H](O)c2cccc(F)c2)CC1.Cl [Example 158, 3-((1R,4r)-4-(2-(((R)-2-(3-Fluorophenyl)-2-hydroxyethyl)amino)-2-methyl-propyl)cyclohexyl)-1,1-dimethylurea hydrochloride]
Biological example 1: glucose uptake, activity compared to that of isoproterenol (L6-myotubes [1]): + + +
Biological example 2: intracellular cAMP levels, activity compared to that of isoproterenol (L6-myotubes [2]): + + +

CC(=O)N(C)[C@H]1CC[C@@H](CC(C)(C)NC[C@H](O)c2cncc(F)c2)CC1.Cl [Example 184, N-((1S,4s)-4-(2-(((R)-2-(5-Fluoropyridin-3-yl)-2-hydroxyethyl)amino)-2-methylpropyl)cyclohexyl)-N-methylacetamide]
Biological example 1: glucose uptake, activity compared to that of isoproterenol (L6-myotubes [1]): + + +
Emax at 10 µM (L6-myotubes [2]): < 25%

COC(=O)[C@H]1CC[C@H](C(C)(C)NC[C@H](O)c2cccc(F)c2)CC1 [Example 99, Methyl (1R,4r)-4-(2-(((R)-2-(3-fluorophenyl)-2-hydroxyethyl)amino)propan-2-yl)cyclohexane-1-carboxylate]
Biological example 1: glucose uptake, activity compared to that of isoproterenol (L6-myotubes [1]): + + +
Emax at 10 µM (L6-myotubes [2]): < 25%

CC(C)(CC[C@H]1CC[C@@H](C(=O)O)CC1)NC[C@H](O)c1cccc(F)c1 [Example 113, (1S,4s)-4-(3-(((R)-2-(3-Fluorophenyl)-2-hydroxyethyl)amino)-3-methyl-butyl)cyclohexane-1-carboxylic acid]
Emax at 10 µM (L6-myotubes [1]): 25 to 50%
Emax at 10 µM (L6-myotubes [2]): < 25%

CC(=O)N[C@H]1CC[C@H](CCC(C)(C)NC[C@H](O)c2cncc(F)c2)CC1 [Example 93, N-((1S,4r)-4-(3-(((R)-2-(5-Fluoropyridin-3-yl)-2-hydroxyethyl)amino)-3-methylbutyl)cyclohexyl)acetamide]
Biological example 1: glucose uptake, activity compared to that of isoproterenol (L6-myotubes [1]): + + +
Emax at 10 µM (L6-myotubes [2]): < 25%

CO[C@@H]1CCC[C@H](C(C)(C)NC[C@H](O)c2cncc(F)c2)C1 (single isomer, unassigned) [Example 121]
Biological example 1: glucose uptake, activity compared to that of isoproterenol (L6-myotubes [1]): + +
Emax at 10 µM (L6-myotubes [2]): < 25%

O=C(N[C@H]1CC[C@H](CNC[C@H](O)c2cccc(F)c2)CC1)c1ccccc1 [Example 69, N-((1R,4r)-4-((((R)-2-(3-Fluorophenyl)-2-hydroxyethyl)amino)-methyl)cyclohexyl)benzamide]
Biological example 1: glucose uptake, activity compared to that of isoproterenol (L6-myotubes [1]): + + +
Emax at 10 µM (L6-myotubes [2]): < 25%

O=C(N[C@H]1CC[C@@H](CNC[C@H](O)c2cccc(F)c2)CC1)c1ccccc1 [Example 75, N-((1S,4s)-4-((((R)-2-(3-Fluorophenyl)-2-hydroxyethyl)amino)methyl)-cyclohexyl)benzamide]
Biological example 1: glucose uptake, activity compared to that of isoproterenol (L6-myotubes [1]): + +
Emax at 10 µM (L6-myotubes [2]): < 25%

COC1CCC(CCCNC[C@H](O)c2cncc(F)c2)CC1 (stereo partly drawn) [Example 18, (R)-1-(5-Fluoropyridin-3-yl)-2-((3-((1r,4S)-4-methoxycyclohexyl)propyl)-amino)ethan-1-ol]
Emax at 10 µM (L6-myotubes [1]): < 25%
Emax at 10 µM (L6-myotubes [2]): < 25%

CN([C@H]1CC[C@@H](CC(C)(C)NC[C@H](O)c2cncc(F)c2)CC1)S(C)(=O)=O.Cl [Example 185, N-((1S,4s)-4-(2-(((R)-2-(5-Fluoropyridin-3-yl)-2-hydroxyethyl)amino)-2-methylpropyl)cyclohexyl)-N-methylmethanesulfonamide]
Biological example 1: glucose uptake, activity compared to that of isoproterenol (L6-myotubes [1]): + + +
Emax at 10 µM (L6-myotubes [2]): < 25%

CC(C)(C[C@H]1CC[C@@H](N)CC1)NC[C@H](O)c1cncc(F)c1 [Example 175, (R)-2-((1-((1s,4S)-4-Aminocyclohexyl)-2-methylpropan-2-yl)amino)-1-(5-fluoropyridin-3-yl)ethan-1-ol]
Biological example 1: glucose uptake, activity compared to that of isoproterenol (L6-myotubes [1]): + +
Emax at 10 µM (L6-myotubes [2]): < 25%

CC(C)(NC[C@H](O)c1cncc(F)c1)[C@H]1CC[C@@H](O)CC1 [Example 36, (1S,4s)-4-(2-(((R)-2-(5-Fluoropyridin-3-yl)-2-hydroxyethyl)amino)propan-2-yl)cyclohexan-1-ol]
Emax at 10 µM (L6-myotubes [1]): 25 to 50%
Emax at 10 µM (L6-myotubes [2]): < 25%

CC(C)(NC[C@H](O)c1cccc(F)c1)[C@H]1CC[C@H](O)CC1 [Example 38, (1R,4r)-4-(2-(((R)-2-(3-Fluorophenyl)-2-hydroxyethyl)amino)propan-2-yl)cyclohexan-1-ol]
Biological example 1: glucose uptake, activity compared to that of isoproterenol (L6-myotubes [1]): + +
Emax at 10 µM (L6-myotubes [2]): < 25%

O[C@@H](CNCC[C@H]1CC[C@H](OCc2ccccc2)CC1)c1cncc(F)c1 [Example 47, (R)-2-((2-((1r,4R)-4-(Benzyloxy)cyclohexyl)ethyl)amino)-1-(5-fluoropyridin-3-yl)ethan-1-ol]
Emax at 10 µM (L6-myotubes [1]): < 25%
Emax at 10 µM (L6-myotubes [2]): < 25%

O[C@@H](CNC[C@H]1CC[C@@H](OCc2ccccc2)CC1)c1cccc(F)c1 [Example 25, (R)-2-((((1s,4S)-4-(Benzyloxy)cyclohexyl)methyl)amino)-1-(3-fluoro-phenyl)ethan-1-ol]
Emax at 10 µM (L6-myotubes [1]): 25 to 50%
Emax at 10 µM (L6-myotubes [2]): < 25%

CC(C)(NC[C@H](O)c1cncc(F)c1)[C@H]1CC[C@H](OCC(=O)O)CC1 [Example 127, 2-(((1R,4r)-4-(2-(((R)-2-(5-Fluoropyridin-3-yl)-2-hydroxyethyl)amino)-propan-2-yl)cyclohexyl)oxy)acetic acid]
Biological example 1: glucose uptake, activity compared to that of isoproterenol (L6-myotubes [1]): + +
Emax at 10 µM (L6-myotubes [2]): < 25%

CC(C)(C[C@H]1CC[C@@H](NS(C)(=O)=O)CC1)NC[C@@H](O)c1cccc(C#N)n1 [Example 138, N-((1S,4s)-4-(2-(((R)-2-(6-Cyanopyridin-2-yl)-2-hydroxyethyl)amino)-2-methylpropyl)cyclohexyl)methanesulfonamide]
Biological example 1: glucose uptake, activity compared to that of isoproterenol (L6-myotubes [1]): + +
Emax at 10 µM (L6-myotubes [2]): < 25%

CC(C)(C[C@H]1CC[C@H](NS(C)(=O)=O)CC1)NC[C@H](O)c1cccc(C#N)n1 [Example 140, N-((1S,4r)-4-(2-(((S)-2-(6-Cyanopyridin-2-yl)-2-hydroxyethyl)amino)-2-methylpropyl)cyclohexyl)methanesulfonamide]
Biological example 1: glucose uptake, activity compared to that of isoproterenol (L6-myotubes [1]): + + +
Emax at 10 µM (L6-myotubes [2]): < 25%

CC(C)(NC[C@H](O)c1cccc(F)c1)[C@H]1CC[C@@H](C(=O)O)CC1 [Example 98, (1S,4s)-4-(2-(((R)-2-(3-Fluorophenyl)-2-hydroxyethyl)amino)propan-2-yl)-cyclohexane-1-carboxylic acid]
Emax at 10 µM (L6-myotubes [1]): 25 to 50%
Emax at 10 µM (L6-myotubes [2]): < 25%

O[C@@H](CNCC[C@H]1CC[C@@H](O)CC1)c1cccc(F)c1 [Example 42, (1S,4s)-4-(2-(((R)-2-(3-Fluorophenyl)-2-hydroxyethyl)amino)ethyl)-cyclohexan-1-ol]
Biological example 1: glucose uptake, activity compared to that of isoproterenol (L6-myotubes [1]): + +
Emax at 10 µM (L6-myotubes [2]): < 25%

CC(C)(NC[C@H](O)c1cccc(F)c1)[C@H]1CC[C@@H](O)CC1 [Example 34, (1S,4s)-4-(2-(((R)-2-(3-Fluorophenyl)-2-hydroxyethyl)amino)propan-2-yl)cyclohexan-1-ol]
Biological example 1: glucose uptake, activity compared to that of isoproterenol (L6-myotubes [1]): + +
Emax at 10 µM (L6-myotubes [2]): < 25%

O[C@@H](CNCC[C@H]1CC[C@H](OCc2ccccc2)CC1)c1cccc(F)c1 [Example 45, (R)-2-((2-((1r,4R)-4-(Benzyloxy)cyclohexyl)ethyl)amino)-1-(3-fluoro-phenyl)ethan-1-ol]
Emax at 10 µM (L6-myotubes [1]): 25 to 50%
Emax at 10 µM (L6-myotubes [2]): < 25%

CC(C)(CC[C@H]1CC[C@H](N)CC1)NC[C@H](O)c1cncc(F)c1 [Example 92, (R)-2-((4-((1r,4S)-4-Aminocyclohexyl)-2-methylbutan-2-yl)amino)-1-(5-fluoropyridin-3-yl)ethan-1-ol]
Emax at 10 µM (L6-myotubes [1]): 25 to 50%
Emax at 10 µM (L6-myotubes [2]): < 25%
